Measured values published in publication PMC9904262, “Omics analysis of Mycobacterium tuberculosis isolates uncovers Rv3094c, an ethionamide metabolism-associated gene” (Communications Biology, 2023).

B1: Rv3094c (enzyme)
chain: NQSETEIEILAEKIARWARARSAEIERDRRLPDELVTRLREAGLLRATMPREVAAPELAPGRALRCAEAVARGDASAGWCVSIAITSALLVAYLPARSREEMFGGGRGVAAGVWAPRGTARSVDGGVVVSGRWPFCSGINHADIMFAGCFVDDRQVPSVVALNKDELQVLDTWHTLGLRGTGSHDCVADDVFVPADRVFSVFDGPIVDRPLYRFPVFGFFALSIGAAALGNARAAIDDLVELAGGKKGLGSTRTLAERSATQAAAATAESALGAARALFYEVIEAAWQVSHDAEAVPVTMRNRLRLAATHAVRTSADVVRSMYDLAGGTAIYDNAPLQRRFRDAFTATAHFQVNEASRELPGRVLLDQPADVSML
notes: also called apo-Rv3094c; Rv3094c-FMN

Tests used:
EthA = target: T1, EthA (Mycobacterium tuberculosis, UniProt P9WNF9); type: cell-based; conditions: ethionamide 80 µg/ml (Methods), 37 °C, up to 6 h
T1 construct: N-terminal 6xHis tag kept (pET28a), expressed in intact E. coli BL21(DE3); not purified
T1 sequence (P9WNF9 whole entry): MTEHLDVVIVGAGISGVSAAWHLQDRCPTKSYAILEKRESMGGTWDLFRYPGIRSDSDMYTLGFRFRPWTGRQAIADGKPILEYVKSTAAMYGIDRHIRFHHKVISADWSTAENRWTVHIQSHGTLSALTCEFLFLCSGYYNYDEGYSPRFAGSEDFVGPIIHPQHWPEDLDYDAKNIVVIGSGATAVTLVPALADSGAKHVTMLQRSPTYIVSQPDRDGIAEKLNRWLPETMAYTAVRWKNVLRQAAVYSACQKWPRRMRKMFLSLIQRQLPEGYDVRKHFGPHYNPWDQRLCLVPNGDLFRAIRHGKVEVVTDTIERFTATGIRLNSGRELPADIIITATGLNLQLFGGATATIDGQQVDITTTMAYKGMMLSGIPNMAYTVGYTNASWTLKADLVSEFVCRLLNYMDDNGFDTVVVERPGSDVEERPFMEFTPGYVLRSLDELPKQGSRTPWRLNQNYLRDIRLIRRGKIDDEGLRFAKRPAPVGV

Rv3094c [1] = target: T2, Rv3094c (Mycobacterium tuberculosis, UniProt O05773)
T2 sequence (O05773 entry or part of it): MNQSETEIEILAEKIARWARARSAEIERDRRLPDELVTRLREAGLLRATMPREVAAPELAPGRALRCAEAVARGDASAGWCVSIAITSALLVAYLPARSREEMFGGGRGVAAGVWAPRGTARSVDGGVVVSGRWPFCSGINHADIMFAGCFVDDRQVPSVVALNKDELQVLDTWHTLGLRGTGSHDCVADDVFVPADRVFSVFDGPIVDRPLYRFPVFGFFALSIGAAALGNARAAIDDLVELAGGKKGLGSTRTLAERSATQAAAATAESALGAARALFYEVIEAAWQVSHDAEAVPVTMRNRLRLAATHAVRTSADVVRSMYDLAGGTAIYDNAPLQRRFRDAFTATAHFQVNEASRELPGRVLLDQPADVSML

Rv3094c [2] = target: T2, Rv3094c; remark: listed apart in the source
[3] = target: the molecule itself; test: crystal structure; crystals of apo-Rv3094c, Rv3094c-FMN and Rv3094c-FMN-ETH; 0.2 M sodium nitrate, 0.1 M Bis Tris propane pH 8.5, 20% PEG3350, 16 °C; multimeric state analysed with PDBePISA

Row | Molecule | HPLC-UV of E. coli culture supernatant, LC-MS/MS (EthA) | HPLC-UV of E. coli culture supernatant, LC-MS/MS (Rv3094c [1]) | X-ray crystallography (Rv3094c [2]) | stoichiometry N [3]
1 | CCc1cc(C(N)=S=O)ccn1 [ETH-SO] | We synthesized an ETH-SO standard, and confirmed the new peak to be ETH-SO | We synthesized an ETH-SO standard, and confirmed the new peak to be ETH-SO | – | –
2 | CCc1cc(C(N)=S)ccn1 [ethionamide] | in supernatants from Rv3094c and ethA overexpression strains declined over time | Rv3094c must be a monooxygenase that can directly sulfoxidise ethionamide, forming ETH-SO | in complex with FMN (Rv3094c-FMN; Supplementary Fig. 4b) and ethionamide (Rv3094c-FMN-ETH | –
3 | Cc1cc2nc3c(=O)[nH]c(=O)nc-3n(C[C@H](O)[C@H](O)[C@H](O)COP(=O)(O)O)c2cc1C [flavin mononucleotide] | – | – | Rv3094c in complex with FMN (Rv3094c-FMN; Supplementary Fig. 4b) | –
4 | B1 | – | – | – | 4
